From US9034907B2, “Inhibitors of glutaminyl cyclase” (Probiodrug AG, priority 2007, dated 2015)

Tests used:
glutaminyl cyclase (QC) = glutaminyl cyclase (QC) (Homo sapiens (Human), UniProt Q16769); assay: QC inhibitor assay (fluorometric / spectrophotometric QC activity assay with inhibitor added); details: 30° C.
Chain of glutaminyl cyclase (QC) (Q16769 29-361): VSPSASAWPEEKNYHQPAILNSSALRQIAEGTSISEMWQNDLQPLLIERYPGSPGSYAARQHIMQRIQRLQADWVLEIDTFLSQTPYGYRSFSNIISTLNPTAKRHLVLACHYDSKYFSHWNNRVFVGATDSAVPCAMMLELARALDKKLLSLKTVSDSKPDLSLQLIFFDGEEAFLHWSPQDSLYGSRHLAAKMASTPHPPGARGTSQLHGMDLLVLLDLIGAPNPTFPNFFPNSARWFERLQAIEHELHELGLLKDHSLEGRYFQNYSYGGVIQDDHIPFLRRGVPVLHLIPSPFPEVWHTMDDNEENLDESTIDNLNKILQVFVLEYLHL
Method: All measurements were performed with a BioAssay Reader HTS-7000Plus for microplates (Perkin Elmer) at 30° C. QC activity was evaluated fluorometrically using H-Gln-βNA. The samples consisted of 0.2 mM fluorogenic substrate, 0.25 U pyroglutamyl aminopeptidase (Unizyme, Hørsholm, Denmark) in 0.2 M Tris/HCl, pH 8.0 containing 20 mM EDTA and an appropriately diluted aliquot of QC in a final volume of 250 μl. Excitation/emission wavelengths were 320/410 nm. The assay reactions were initiated by addition of glutaminyl cyclase. QC activity was determined from a standard curve of β-naphthylamine under assay conditions. One unit is defined as the amount of QC catalyzing the formation of 1 μmol pGlu-βNA from H-Gln-βNA per minute under the described conditions.
In a second fluorometric assay, QC was activity determined using H-Gln-AMC as substrate. Reactions were carried out at 30° C. utilizing the NOVOStar reader for microplates (BMG labtechnologies). […] The kinetic data were evaluated using GraFit software.
Samples consisted of the respective QC substrate, 0.3 mM NADH, 14 mM α-Ketoglutaric acid and 30 U/ml glutamate dehydrogenase in a final volume of 250 μl. […] All samples were measured at 30° C., using either the [sequence]luor Plus or the Sunrise (both from TECAN) reader for microplates. Kinetic data was evaluated using GraFit software. […]

melting point [°C] | Structure (SMILES) | also measured
225 to 227 | Cc1csc2c(=O)n(CCCn3ccnc3)c(=S)[nH]c12 | 
118 to 120 | O=c1c2c3c(sc2[nH]c(=S)n1CCCn1ccnc1)CCCC3 | 
 | O=c1c2ccccc2[nH]c(=S)n1-c1ccc2[nH]cnc2c1 [Example 43, 3-(1H-benzo[d]imidazol-5-yl)-2,3-dihydro-2-thioxo-quinazolin-4(1H)-one] | IC50 (glutaminyl cyclase (QC); QC inhibition): 121 µM
 | O=c1c2ccccc2[nH]c(=S)n1CCCn1ccnc1 [Example 28, 2,3-dihydro-3-(3-(1H-imidazol-1-yl)propyl)-2-thioxoquinazolin-4(1H)-one] | Ki (glutaminyl cyclase (QC); competitive inhibition fit of progress curves): 0.3 µM
